Measurements from patent publication US5876761A, “Sustained release formulations of water soluble peptides” (Novartis AG, priority 1990, dated 1999).
Entries after “also recorded” stand apart in the source; their conditions may differ.

Test: Stability of octreotide pamoate in sustained release formulations
Type: physicochemical
Conditions: in sustained release formulations (microparticles); hydrate

C[C@@H](O)[C@@H]1NC(=O)[C@H](CCCCN)NC(=O)[C@@H](Cc2c[nH]c3ccccc23)NC(=O)[C@H](Cc2ccccc2)NC(=O)[C@@H](NC(=O)[C@H](N)Cc2ccccc2)CSSC[C@@H](C(=O)N[C@H](CO)[C@@H](C)O)NC1=O [pamoate, octreotide pamoate hydrate]
stability: excellent stability; also recorded: very stable
